Measured values taken from patent publication US8497269B2, “Phthalazine compounds as p38 map kinase modulators and methods of use thereof” (Amgen Inc., priority 2008, dated 2013).
pIC50: −log10 of the molar value.

How the values were obtained:
human p38α = human p38α (Homo sapiens, UniProt Q16539); assay: Purified and activated recombinant human p38α assay (HTRF); assay type: biochemical; details: 1 nM p38α, 50 μM ATP, 100 nM GST-ATF2-Avitag, 1 hour at RT, read-out: p38a IC50 IC50
Procedure: Purified and Activated Recombinant Human p38α Assay
Kinase Reaction Buffer: Kinase reaction buffer for p38α HTRF assays consists of 50 mM Tris-pH 7.5, 5 mM MgCl2, 0.1 mg/mL BSA, 100 μM Na3VO4 and 0.5 mM DTT.
HTRF Detection Buffer: HTRF detection buffer contains 100 mM HEPES-pH 7.5, 100 mM NaCl, 0.1% BSA, 0.05% Tween-20, and 10 mM EDTA.
Serial Dilution of Compounds: Compounds were dissolved in 100% DMSO and serially diluted (3 fold, 10 point) in a polypropylene 96-well microtiter plate (drug plate). The final starting concentration of compounds in the p38α enzymatic assays was 1 μM. Columns 6 and 12 (HI controls and LO controls respectively) in the drug plate were reserved as controls and contained only DMSO. Kinase Reaction: The p38α kinase reactions were carried out in a polypropylene 96-well black round bottom assay plate in total volume of 30 μL kinase reaction buffer. Appropriate concentration of purified and activated enzyme (recombinant human) was mixed with indicated concentration of ATP and 100 nM GST-ATF2-Avitag, in the presence or absence (HI control) of Compound. See table below for actual concentrations. In the absence of substrate, the background was measured as LO control. The reaction was allowed to incubate for 1 hour at RT. Assay Reagent Concentrations: The final reagent concentrations were 1 nM p38α and 50 μM ATP. […] After 60 minutes incubation at room temperature, the assay plate was read in a Discovery Plate Reader. The wells were excited with coherent 320 nm light and the ratio of delayed ([…] post excitation) emissions at […] (native europium fluorescence) and 665 nm (europium fluorescence transferred to allophycocyanin—an index of substrate phosphorylation) was determined (Park et al, 1999). Data Analysis: The proportion of substrate phosphorylated in the kinase reaction in the presence of compound compared with that phosphorylated in the presence of DMSO vehicle alone (HI control) was calculated using the formula: % control (POC)=(compound−average LO)/(average HI−average LO)*100. Data (consisting of POC and inhibitor concentration in μM) was fitted to a 4-parameter equation (y=A+((B−A)/(1+((x/C)^D))), where A is the minimum y (POC) value, B is the maximum y (POC), C is the x (compound concentration) at the point of inflection and D is the slope factor, using a Levenburg-Marquardt non-linear regression algorithm.
The inhibition constant (Ki) of the inhibitor was estimated from the IC50 (compound concentration at the point of inflection C) using the Cheng-Prussof equation: Ki=IC50/(1+S/Km), where S is the ATP substrate concentration, and Km is the Michaelis constant for ATP as determined experimentally. All results were expressed as the mean±the standard error of the mean. Data acquisition and non-linear regression algorithms were performed using Activity Base v5.2 and XL-fit software v4.1 respectively. All data was archived using Activity Base v5.2 software.

[1] = test system: TNF-α induced IL-8 production in human whole blood; assay: Inhibition of TNF-α induced IL-8 in 50% human whole blood; assay type: cell-based; details: 1 nM TNF-α, secreted IL-8, 16-18 hours, read-out: WB TNF/IL8 IC50
Procedure: Inhibition of TNF-α Induced IL-8 in 50% Human Whole Blood
Test compounds were evaluated in vitro for the ability to inhibit the production of secreted IL-8 by whole blood activated with TNF-α. Fresh human whole blood was obtained from healthy, non-medicated volunteers in sodium heparin tubes.
Compound Dilution—Assay Procedure
Test compounds are serially diluted 1:3 in DMSO and then diluted 1:250 into R10 (RPMI 1640, 10% human serum AB, 1× pen/strep/glutamine) to the 4× working concentration to be used in the assay. 100 ul heparinized whole blood is plated into wells of 96 well flat bottom plates. 50 ul of either 4× compound or DMSO control (Final DMSO concentration is 0.1%) are added to the appropriate wells. Plates are incubated for 1 hour at 37 degrees Celsius. 50 ul of 4×TNF-α (4 nM TNF-α, for a final concentration of 1 nM) or control (media alone) is added to the appropriate wells (Total volume=200 ul). Plates are incubated overnight (16-18 hours). 100 ul of supernatant is collected and stored in 96-well round bottom polypropylene plates at −80 degrees Celsius or assayed immediately for IL-8.
Cytokines are measured on antibody (Ab) sandwich ECL based 96-well detection plates. 20 ul of supernatant are added to plate and plate is sealed and shaken at RT for 1 hour. 130 ul of detection Ab cocktail is added and plates are sealed and shaken for 1 hour in the dark at RT. Plates are read on MSD Sector HTS instrument. Data are analyzed and IC50 values generated using Activity Base and Xl-fit programs.

Sequence of human p38α (Q16539 whole entry): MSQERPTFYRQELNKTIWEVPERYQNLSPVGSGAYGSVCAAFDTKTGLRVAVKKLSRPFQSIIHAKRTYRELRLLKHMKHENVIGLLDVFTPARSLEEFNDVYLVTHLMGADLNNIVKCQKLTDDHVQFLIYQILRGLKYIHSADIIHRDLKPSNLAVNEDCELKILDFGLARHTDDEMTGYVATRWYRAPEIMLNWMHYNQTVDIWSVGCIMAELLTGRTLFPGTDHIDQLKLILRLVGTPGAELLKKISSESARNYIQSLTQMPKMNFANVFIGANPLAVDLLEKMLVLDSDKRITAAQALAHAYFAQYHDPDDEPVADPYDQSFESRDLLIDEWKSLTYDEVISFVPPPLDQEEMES

Row | Structure (SMILES) | pIC50 (human p38α) | pIC50 [1]
1 | CC(Oc1nncc2cc(Nc3ccc(F)cc3F)ccc12)C(F)(F)F (racemic) [Example 6, N-(2,4-Difluorophenyl)-1-(1,1,1-trifluoropropan-2-yloxy)phthalazin-6-amine] | 8.51 | 7.43
2 | CC1CCCN1c1nncc2cc(Nc3ccc(F)cc3F)ccc12 (stereo not shown) [Example 1, N-(2,4-Difluorophenyl)-1-(2-methylpyrrolidin-1-yl)phthalazin-6-amine] | 8.82 | 8.39
3 | Cc1cc(S(C)(=O)=O)ccc1-c1nncc2cc(Nc3ccc(F)cc3)ccc12 [Example 2, N-(4-Fluorophenyl)-1-(2-methyl-4-(methylsulfonyl)phenyl)phthalazin-6-amine] | 9.52 | 9.10
4 | Cc1ccc(F)cc1Nc1ccc2c(-c3ccc(F)cc3C)nncc2c1 [Example 3, 1-(4-Fluoro-2-methylphenyl)-N-(5-fluoro-2-methylphenyl)phthalazin-6-amine] | 9.30 | 8.46
5 | Cc1cc(F)ccc1-c1nncc2cc(Sc3cccc(F)c3)ccc12 [Example 4, 1-(4-Fluoro-2-methylphenyl)-6-(3-fluorophenylthio)phthalazine] | 9.00 | 7.17
6 | CC(c1nncc2cc(Nc3ccc(F)cc3)ccc12)C(F)(F)F (stereo not shown) [Example 5, N-(4-Fluorophenyl)-1-(2,2,2-trifluoro-1-methylethyl)-6-phthalazinamine] | 9.00 | 8.41
7 | C[C@@H](Oc1nncc2cc(Nc3ccc(F)cc3F)ccc12)C(F)(F)F [Example 6a, N-(2,4-difluorophenyl)-1-(((1R)-2,2,2-trifluoro-1-methylethyl)oxy)-6-phthalazinamine] | 8.82 | 7.62
8 | C[C@H](Oc1nncc2cc(Nc3ccc(F)cc3F)ccc12)C(F)(F)F [Example 6b, N-(2,4-difluorophenyl)-1-(((1S)-2,2,2-trifluoro-1-methylethyl)oxy)-6-phthalazinamine] | 8.34 | 7.05
9 | CC(C)c1nncc2cc(Nc3ccc(F)cc3F)ccc12 [Example 7, N-(2,4-Difluorophenyl)-1-isopropylphthalazin-6-amine] | 9.40 | 8.62
10 | Cc1ccccc1-c1nncc2cc(Nc3ccc(F)cc3F)ccc12 [Example 8, N-(2,4-difluorophenyl)-1-(2-methylphenyl)-6-phthalazinamine] | 9.70 | 8.77
11 | Cc1ccccc1-c1nncc2cc(Nc3ccccc3)ccc12 [Example 9, 1-(2-methylphenyl)-N-phenyl-6-phthalazinamine] | 9.70 | 8.82
12 | Cc1cc(S(C)(=O)=O)ccc1-c1nncc2cc(Nc3ccc(F)cc3F)ccc12 [Example 10, N-(2,4-difluorophenyl)-1-(2-methyl-4-(methylsulfonyl)phenyl)-6-phthalazinamine] | 9.52 | 9.30
13 | Cc1cc(F)ccc1-c1nncc2cc(Nc3ccc(F)cc3)ccc12 [Example 11, 1-(4-fluoro-2-methylphenyl)-N-(4-fluorophenyl)-6-phthalazinamine] | 9.40 | 8.82
14 | Cc1cc(S(C)(=O)=O)c(F)cc1-c1nncc2cc(Nc3ccc(F)cc3F)ccc12 [Example 12, N-(2,4-difluorophenyl)-1-(5-fluoro-2-methyl-4-(methylsulfonyl)phenyl)-6-phthalazinamine] | 9.30 | 9.10
15 | Cc1cc(F)ccc1-c1nncc2cc(Nc3ccc(F)cc3C(F)(F)F)ccc12 [Example 13, 1-(4-fluoro-2-methylphenyl)-N-(4-fluoro-2-(trifluoromethyl)phenyl)-6-phthalazinamine] | 9.30 | 8.00
16 | Cc1cc(F)ccc1-c1nncc2cc(Nc3ncccc3C)ccc12 [Example 14, 1-(4-fluoro-2-methylphenyl)-N-(3-methyl-2-pyridinyl)-6-phthalazinamine] | 9.15 | 8.18
17 | Cc1cccc(Nc2ccc3c(-c4ccc(F)cc4C)nncc3c2)n1 [Example 15, 1-(4-fluoro-2-methylphenyl)-N-(6-methyl-2-pyridinyl)-6-phthalazinamine] | 8.82 | 7.94
18 | Cc1cc(F)ccc1-c1nncc2cc(Nc3ccccn3)ccc12 [Example 16, 1-(4-fluoro-2-methylphenyl)-N-2-pyridinyl-6-phthalazinamine] | 8.80 | 7.79
19 | CC1CCCN1c1nncc2cc(Nc3ccccc3)ccc12 (stereo not shown) [Example 17, 1-(2-methyl-1-pyrrolidinyl)-N-phenyl-6-phthalazinamine] | 8.30 | 8.17
20 | Cc1cc(F)ccc1-c1nncc2cc(Nc3cccc(F)c3C)ccc12 [Example 18, N-(3-fluoro-2-methylphenyl)-1-(4-fluoro-2-methylphenyl)-6-phthalazinamine] | 9.52 | 8.74
21 | Cc1cccc(Nc2ccc3c(-c4ccc(F)cc4C)nncc3c2)c1 [Example 19, 1-(4-fluoro-2-methylphenyl)-N-(3-methylphenyl)-6-phthalazinamine] | 9.52 | 8.66
22 | Cc1cc(F)ccc1Nc1ccc2c(-c3ccc(F)cc3C)nncc2c1 [Example 20, N,1-bis(4-fluoro-2-methylphenyl)-6-phthalazinamine] | 9.52 | 8.74
23 | Cc1cc(F)ccc1-c1nncc2cc(Nc3cccc(F)c3)ccc12 [Example 21, 1-(4-fluoro-2-methylphenyl)-N-(3-fluorophenyl)-6-phthalazinamine] | 9.30 | 8.49
24 | Cc1cc(F)ccc1-c1nncc2cc(Nc3ccc(F)cn3)ccc12 [Example 22, 1-(4-fluoro-2-methylphenyl)-N-(5-fluoro-2-pyridinyl)-6-phthalazinamine] | 9.10 | 7.96
25 | Cc1cc(S(C)(=O)=O)c(F)cc1-c1nncc2cc(Nc3ccc(F)cc3)ccc12 [Example 24, 1-(5-fluoro-2-methyl-4-(methylsulfonyl)phenyl)-N-(4-fluorophenyl)-6-phthalazinamine] | 9.15 | 8.33
26 | Cc1cc(S(C)(=O)=O)c(Cl)cc1-c1nncc2cc(Nc3ccc(F)cc3)ccc12 [Example 25, 1-(5-chloro-2-methyl-4-(methylsulfonyl)phenyl)-N-(4-fluorophenyl)-6-phthalazinamine] | 9.15 | 8.35
27 | Cc1cc(S(C)(=O)=O)c(Cl)cc1-c1nncc2cc(Nc3ccc(F)cc3F)ccc12 [Example 26, 1-(5-chloro-2-methyl-4-(methylsulfonyl)phenyl)-N-(2,4-difluorophenyl)-6-phthalazinamine] | 9.15 | 8.38
28 | Cc1cc(F)ccc1-c1nncc2cc(Nc3ccccc3)ccc12 [Example 27, 1-(4-fluoro-2-methylphenyl)-N-phenyl-6-phthalazinamine] | 9.15 | 8.57
29 | COc1ncccc1-c1nncc2cc(Nc3ccc(F)cc3)ccc12 [Example 28, N-(4-fluorophenyl)-1-(2-(methyloxy)-3-pyridinyl)-6-phthalazinamine] | 9.05 | 8.80
